Test [1] deals with F. graminearum CBS 185.32. The test is classed as cell-based, Fusarium graminearum.
The test system of test [2] is F. graminearum CBS 185.32. The test is classed as cell-based, Fusarium graminearum. This is another data set of the same source.
For test [3], the system named is Fusarium culmorum and Fusarium graminearum. The conditions noted are these: cited from earlier work.

Entries after “also recorded” stand apart in the source; their conditions may differ.

Turning to “C G N F L K R T C I C V K K (CGNFLKRTCICVKK) [TickCore3, conserved linear gamma core moiety of the tick defensin DefMT3]”, the “fungal growth / dry fungal biomass (antifungal activity)” value (“fungal growth / dry fungal biomass” below) in test [1] is “significantly inhibited fungal growth at all the concentrations tested”. Also, in test [2], the 15-ADON production result is reported as “non-detectable levels; also recorded: residual levels”; the DON production result was “non-detectable levels”; the “inhibition of TCTB mycotoxin production (DON and 15-ADON together)” value (“inhibition of TCTB mycotoxin production” below) is listed as “inhibits the production of category B trichothecenes”.
For the substance “C G N F L K R T C I C V K T (CGNFLKRTCICVKT) [TickCore3-K14T]”, in test [1], the “fungal growth / dry fungal biomass” value is recorded as “strong antifungal activity only at 50 μM”.
The same measure, in the same setting: next, “C G N F L K R T C I C V T K (CGNFLKRTCICVTK) [TickCore3-K13T]”: “strong antifungal activity only at 50 μM”; “C G N F L K T T C I C V K K (CGNFLKTTCICVKK) [TickCore3-R7T]”: “strong antifungal activity only at 50 μM”.
As for “C G N F L T R T C I C V K K (CGNFLTRTCICVKK) [TickCore3-K6T]”, the “fungal growth / dry fungal biomass” value in test [1] is “no antifungal activity below the concentration at 50 μM”. Also, the “inhibition of TCTB mycotoxin production” value in test [2] is given as “reduction in the ability to inhibit TCTB production is particularly pronounced”.
With “C(CH3)GNFLKRTC(CH3)IC(CH3)VKK [TickCore3-CH3-123]”, in test [2], the 15-ADON production entry was “significantly less”; the DON production entry is “significantly less”; the “inhibition of TCTB mycotoxin production” value is listed as “little effect on the inhibitory effect affecting TCTB production”.
With “C(CH3)GNFLKRTCRICVKK [TickCore3-CH3-1 Ox]”, the “fungal growth / dry fungal biomass” value in test [1] was “no effect on fungal growth at any of the concentrations tested”. For the same substance, in test [2], the 15-ADON levels result is on record as “significant reduction” and the DON levels result is “significant reduction”.
On to “CGNFLKRTC(CH3)ICVKK [TickCore3-CH3-2 Ox]”, for which, in test [1], the “fungal growth / dry fungal biomass” value was “no effect on fungal growth at any of the concentrations tested”. Also, in test [2], the 15-ADON production entry is “did not change significantly” and the DON production result is “significant increase”.
On the same counts, the results for “CGNFLKRTCIC(CH3)VKK [TickCore3-CH3-3 Ox]” are “no effect on fungal growth at any of the concentrations tested”, “significant increase” and “significant increase”.
With “DefMT6: tick defensin described in Tonk et al., 2015 (GFGCPLNQGACHNHCRSIKRRGGYCSGIIKQTCTCYRK; DefMT6) [reference compound]”, the “antibacterial and antifungal activity” value in test [3] is “antibacterial and antifungal activity”.
“GGYYCPFRQDKCHRHCRSFGRKAGYCGNFLKRTCICVKK (DefMT3) [tick defensin, synthesized by SPPS]”: in test [2], the 15-ADON production entry is given as “shows inhibitory activity” and the DON production result is recorded as “shows inhibitory activity”. Also, in test [3], the “antibacterial and antifungal activity” value is “antibacterial and antifungal activity”.

Values taken from US20230157302A1, “METHODS FOR […] MYCOTOXIN PRODUCTION” (Institut National de Recherche Pour L'Agriculture, …, priority 2020, published 2023).
